Measured values reported in PMC9395504 (Investigational New Drugs, 2022).
Read-outs that look alike come from different tables or passages of the source. Marks after values point to notes of the source that are not given here.

Key:
[1] = Safety: adverse events by NCI-CTCAE v4.0, phase 1 study Part 1; assay type: in vivo, human
Protocol: We defined the dose-limiting toxicity (DLT) period as the first 28 days of each dose-escalation cohort’s treatment cycle (DLT window). […] Non-hematologic DLTs included grade ≥3 nausea, vomiting, or diarrhea enduring >48 hours despite standard medical management, grade 3 fatigue persisting >7 days or grade 4 fatigue, any grade ≥3 metabolic laboratory abnormalities that are not controlled within 48 hours by standard medical management.

[2] = Plasma pharmacokinetics of trametinib and dabrafenib at steady state (LC-MS/MS, noncompartmental); assay type: in vivo, human; details: for Cmax / AUC(0-t) / Tmax: human, plasma, oral
Protocol: We, therefore, collected samples on these days to perform dabrafenib and trametinib PK analysis.
We determined plasma concentrations of trametinib, dabrafenib, and hydroxy- and desmethyl-dabrafenib metabolites with a validated assay using liquid-liquid extraction of samples spiked with the stable isotope internal standards for each analyte followed by analysis using LC-MS/MS detection. The validated concentration ranges for quantitation were 0.250 to 250 ng/mL for trametinib and 1.00 to 1,000 ng/mL for dabrafenib and its metabolites. We calculated concentrations using a linear regression calibration model with a 1/x^2 weighting factor.
The following PK parameters were estimated: maximum observed plasma concentration (Cmax), time to reach Cmax (tmax), area-under-the-plasma concentration-time curve (AUC), terminal phase half-life (t1/2,z), and apparent total body clearance (CL/F). We performed noncompartmental analyses for PK parameter estimation using Phoenix® WinNonlin® version 6.4 or later software (Certara™, Princeton, NJ). […] We prepared descriptive statistics, tables, and graphs using Phoenix® WinNonlin® and Prism version 9.1.1 (GraphPad Software, San Diego, CA).

[3] = trametinib 2 mg QD, Cycle 2 Day 7 with AMG 232, Arm 2 cohort 1 (AMG 232 120 mg), geometric mean (CV%)
[4] = trametinib 2 mg QD, Cycle 2 Day 7 with AMG 232, Arm 2 cohort 3 (AMG 232 240 mg), geometric mean (CV%)

SMILES: CC(C)(C)c1nc(-c2cccc(NS(=O)(=O)c3c(F)cccc3F)c2F)c(-c2ccnc(N)n2)s1 [dabrafenib]
- Patients discontinuing dabrafenib due to AEs ([1]; 10 patients in Arm 1, n=2): 20%
- Effect of AMG 232 on dabrafenib exposures ([2]; dabrafenib and trametinib with and without AMG 232): not significantly altered
- Cmax ([2]; 150 mg BID, dabrafenib 150 mg BID, Cycle 1 Day 21, T + D without AMG 232, Arm 1 cohort 1 (AMG 232 120 mg), geometric mean (CV%)): 1740 ng/mL
- AUC(0-t) ([2]; 150 mg BID, dabrafenib 150 mg BID, Cycle 1 Day 21, T + D without AMG 232, Arm 1 cohort 1 (AMG 232 120 mg), geometric mean (CV%), read-out: AUC6hr): 4840 ng·h/mL
- Cmax ([2]; 150 mg BID, dabrafenib 150 mg BID, Cycle 1 Day 21, T + D without AMG 232, Arm 1 cohort 2 (AMG 232 180 mg), geometric mean (CV%)): 3310 ng/mL
- AUC(0-t) ([2]; 150 mg BID, dabrafenib 150 mg BID, Cycle 1 Day 21, T + D without AMG 232, Arm 1 cohort 2 (AMG 232 180 mg), geometric mean (CV%), read-out: AUC6hr): 7450 ng·h/mL
- Tmax ([2]; 150 mg BID, dabrafenib 150 mg BID, Cycle 1 Day 21, T + D without AMG 232, Arm 1 cohort 2 (AMG 232 180 mg), median (min-max), read-out: tmax): 1 h
- Tmax ([2]; dabrafenib 150 mg BID, Cycle 1 Day 21, T + D without AMG 232, Arm 1 cohort 1 (AMG 232 120 mg), median (min-max), read-out: tmax): 1 h
- Cmax ([2]; dabrafenib 150 mg BID, Cycle 2 Day 7, T + D with AMG 232, Arm 1 cohort 1 (AMG 232 120 mg), geometric mean (CV%)): 1200 ng/mL
- AUC(0-t) ([2]; dabrafenib 150 mg BID, Cycle 2 Day 7, T + D with AMG 232, Arm 1 cohort 1 (AMG 232 120 mg), geometric mean (CV%), read-out: AUC6hr): 3640 ng·h/mL
- Cmax ([2]; dabrafenib 150 mg BID, Cycle 2 Day 7, T + D with AMG 232, Arm 1 cohort 2 (AMG 232 180 mg), geometric mean (CV%)): 1750 ng/mL
- AUC(0-t) ([2]; dabrafenib 150 mg BID, Cycle 2 Day 7, T + D with AMG 232, Arm 1 cohort 2 (AMG 232 180 mg), geometric mean (CV%), read-out: AUC6hr): 4910 ng·h/mL
- Tmax ([2]; dabrafenib, cycle 1, day 21, without AMG 232 co-administration, read-out: median tmax): 1 h

SMILES: CC(=O)Nc1cccc(-n2c(=O)n(C3CC3)c(=O)c3c(Nc4ccc(I)cc4F)n(C)c(=O)c(C)c32)c1 [trametinib]
- Patients discontinuing trametinib due to AEs ([1]; all 31 patients, n=6): 19%
- Effect of AMG 232 co-administration on trametinib PK ([2]; cycle 2 day 7 vs cycle 1 day 21): does not appear to affect
- Cmax ([2]; 2 mg, trametinib 2 mg QD, Cycle 1 Day 21 without AMG 232, Arm 2 cohort 1 (AMG 232 120 mg), geometric mean (CV%)): 21.5 ng/mL
- AUC(0-t) ([2]; 2 mg, trametinib 2 mg QD, Cycle 1 Day 21 without AMG 232, Arm 2 cohort 1 (AMG 232 120 mg), geometric mean (CV%), read-out: AUC24hr): 370 ng·h/mL
- Cmax ([2]; 2 mg, trametinib 2 mg QD, Cycle 1 Day 21 without AMG 232, Arm 2 cohort 2 (AMG 232 180 mg), geometric mean (CV%)): 25.3 ng/mL
- Tmax ([2]; 2 mg, trametinib 2 mg QD, Cycle 1 Day 21 without AMG 232, Arm 2 cohort 2 (AMG 232 180 mg), median (min-max), read-out: tmax): 4 h
- Cmax ([2]; 2 mg, trametinib 2 mg QD, Cycle 1 Day 21 without AMG 232, Arm 2 cohort 3 (AMG 232 240 mg), geometric mean (CV%)): 22.1 ng/mL
- Tmax ([2]; 2 mg, trametinib 2 mg QD, Cycle 1 Day 21 without AMG 232, Arm 2 cohort 3 (AMG 232 240 mg), median (min-max), read-out: tmax): 2 h
- Cmax ([2]; trametinib 2 mg QD, Cycle 1 Day 21 without AMG 232, Arm 1 cohort 1 (AMG 232 120 mg), geometric mean (CV%)): 20.1 ng/mL
- AUC(0-t) ([2]; trametinib 2 mg QD, Cycle 1 Day 21 without AMG 232, Arm 1 cohort 1 (AMG 232 120 mg), geometric mean (CV%), read-out: AUC24hr): 326 ng·h/mL
- Tmax ([2]; trametinib 2 mg QD, Cycle 1 Day 21 without AMG 232, Arm 1 cohort 1 (AMG 232 120 mg), median (min-max), read-out: tmax): 2 h
- Cmax ([2]; trametinib 2 mg QD, Cycle 1 Day 21 without AMG 232, Arm 1 cohort 2 (AMG 232 180 mg), geometric mean (CV%)): 24.1 ng/mL
- AUC(0-t) ([2]; trametinib 2 mg QD, Cycle 1 Day 21 without AMG 232, Arm 1 cohort 2 (AMG 232 180 mg), geometric mean (CV%), read-out: AUC24hr): 362 ng·h/mL
- Tmax ([2]; trametinib 2 mg QD, Cycle 1 Day 21 without AMG 232, Arm 1 cohort 2 (AMG 232 180 mg), median (min-max), read-out: tmax): 2 h
- Cmax ([2]; trametinib 2 mg QD, Cycle 2 Day 7 with AMG 232, Arm 1 cohort 1 (AMG 232 120 mg), geometric mean (CV%)): 22.4 ng/mL
- AUC(0-t) ([2]; trametinib 2 mg QD, Cycle 2 Day 7 with AMG 232, Arm 1 cohort 1 (AMG 232 120 mg), geometric mean (CV%), read-out: AUC24hr): 338 ng·h/mL
- Tmax ([2]; trametinib 2 mg QD, Cycle 2 Day 7 with AMG 232, Arm 1 cohort 1 (AMG 232 120 mg), median (min-max), read-out: tmax): 2 h
- Cmax ([2]; trametinib 2 mg QD, Cycle 2 Day 7 with AMG 232, Arm 1 cohort 2 (AMG 232 180 mg), geometric mean (CV%)): 25.9 ng/mL
- AUC(0-t) ([2]; trametinib 2 mg QD, Cycle 2 Day 7 with AMG 232, Arm 1 cohort 2 (AMG 232 180 mg), geometric mean (CV%), read-out: AUC24hr): 402 ng·h/mL
- Tmax ([2]; trametinib 2 mg QD, Cycle 2 Day 7 with AMG 232, Arm 1 cohort 2 (AMG 232 180 mg), median (min-max), read-out: tmax): 2 h
- Cmax [2, 3]: 24.8 ng/mL
- Tmax ([2]; trametinib 2 mg QD, Cycle 2 Day 7 with AMG 232, Arm 2 cohort 1 (AMG 232 120 mg), median (min-max), read-out: tmax): 2 h
- Cmax ([2]; trametinib 2 mg QD, Cycle 2 Day 7 with AMG 232, Arm 2 cohort 2 (AMG 232 180 mg), n = 1): 21.8 ng/mL
- AUC(0-t) ([2]; trametinib 2 mg QD, Cycle 2 Day 7 with AMG 232, Arm 2 cohort 2 (AMG 232 180 mg), n = 1, read-out: AUC24hr): 463 ng·h/mL
- Tmax ([2]; trametinib 2 mg QD, Cycle 2 Day 7 with AMG 232, Arm 2 cohort 2 (AMG 232 180 mg), n = 1, read-out: tmax): 2 h
- Cmax [2, 4]: 24.3 ng/mL
- Tmax ([2]; trametinib 2 mg QD, Cycle 2 Day 7 with AMG 232, Arm 2 cohort 3 (AMG 232 240 mg), median (min-max), read-out: tmax): 2 h
- Tmax ([2]; trametinib, cycle 2, day 7, with AMG 232 co-administration, across dose cohorts, read-out: median tmax): 1 to 3 h
- AUC24hr ([2]; trametinib 2 mg QD, Cycle 1 Day 21 without AMG 232, Arm 2 cohort 2 (AMG 232 180 mg), geometric mean (CV%)): 471 (26.7%) n = 5 hr•ng/mL
- AUC24hr ([2]; trametinib 2 mg QD, Cycle 1 Day 21 without AMG 232, Arm 2 cohort 3 (AMG 232 240 mg), geometric mean (CV%)): 385 (22.9%) n = 6 hr•ng/mL
- AUC24hr [2, 3]: 468 (23.5%)^a n = 3 hr•ng/mL
- AUC24hr [2, 4]: 351 (41.9%)^a n = 4 hr•ng/mL
- median tmax ([2]; trametinib, cycle 1, day 21, without AMG 232 co-administration, across dose cohorts): 2 h
